Results from US20180311238A1, “Selective Agonist Of a6 Containing nAChRs” (Saniona A/S, priority 2017, published 2018).

Experiments:
[1] = target: T1, neuromuscular nAChRs subtype composed of α1β1γδ subunits (Homo sapiens, UniProt P02708+P07510+Q07001); experiment: biochemical; type: binding
T1 construct: endogenous in cells; host or cells: TE671

[2] = system: L-dopa-induced dyskinesia; experiment: L-dopa-induced dyskinesia (AIMs) in 6-OHDA lesioned rats; type: in vivo, rat
Procedure: Adult male Sprague-Dawley rats (Harlan labs), ˜3 months old and weighing 250-275 grams, were housed in groups of 2 in a temperature- and humidity-controlled colony room that was maintained on a 12 hour light/dark cycle. Food and water were available ad libitum throughout the experiment with the exception that animals were food fasted for 12 hours prior to the surgical (6-OHDA lesion) procedure.
Prior to surgery, all animals were anesthetized and placed in the prone position. The hair was clipped from the head and the surgical site aseptically washed with betadine and alcohol. The animals head was fixed during surgery by a stereotaxic device and continuously anesthetized using isoflurane (1.5-2.0%) via a nosecone attached to the stereotaxic frame. […] The animals were monitored by the surgeon for suitable hemostasis and respiration. […]
For quantification of L-DOPA-induced AIMs, rats were placed in transparent plastic cages and observed during the first minute of every 30-minute period in the 2 hours following the injection of L-DOPA. […]
Each of the four subtypes was scored on a severity scale from 0 to 4. • 0=absent • 1=present during less than half of the observation time • 2=present for more than half of the observation time • 3=present all the time but suppressible by external stimuli • 4=present all the time and not suppressible by external stimuli. […]

[3] = system: primary dopaminergic neuronal culture; experiment: Primary dopaminergic neuronal culture injured by MPP+, number of TH positive neurons; type: cell-based, rat; conditions: MPP+ 4 μM, 48H; compound 1 nM to 1 μM added 1H before intoxication
From the text: Pregnant female Wistar rats of 15 days gestation was euthanized by cervical dislocation and the foetuses was removed from the uterus. Hereafter, the embryonic midbrains was removed and placed in ice-cold medium of Leibovitz containing 2% of Penicillin-Streptomycin and 1% of bovine serum albumin (BSA). Only the ventral portions of the mesencephalic flexure were used for the cell preparations as this is the region of the developing brain rich in dopaminergic neurons. The midbrains were dissociated by trypsinisation for 20 min at 37° C. (Trypsin EDTA 1X). The reaction was stopped by the addition of DULBECCO′S MODIFIED Eagle's medium (DMEM) containing DNAse I grade II (0.1 mg/ml) and 10% foetal calf serum (FCS). Cells were then mechanically dissociated by 3 passages through a 10 ml pipette. Cells was then centrifuged at 180×g for 10 min at 4° C. on a layer of BSA (3.5%) in L15 medium. The supernatant was discarded, and the cells of pellet were re-suspended in a defined culture medium consisting of Neurobasal supplemented with B27 (2%), L-glutamine (2 mM) and 2% of PS solution and 10 ng/ml BDNF and 1 ng/ml of Glial cell-derived neurotrophic factor (GDNF). Viable cells were counted in a Neunauer cytometer using the tryphan blue exclusion test. […]
Half of the medium was changed every 2 days with fresh medium. […] Following an additional 48H of incubation, the number of TH positive neurons were counted. […]

T1 sequence (P02708 21-457): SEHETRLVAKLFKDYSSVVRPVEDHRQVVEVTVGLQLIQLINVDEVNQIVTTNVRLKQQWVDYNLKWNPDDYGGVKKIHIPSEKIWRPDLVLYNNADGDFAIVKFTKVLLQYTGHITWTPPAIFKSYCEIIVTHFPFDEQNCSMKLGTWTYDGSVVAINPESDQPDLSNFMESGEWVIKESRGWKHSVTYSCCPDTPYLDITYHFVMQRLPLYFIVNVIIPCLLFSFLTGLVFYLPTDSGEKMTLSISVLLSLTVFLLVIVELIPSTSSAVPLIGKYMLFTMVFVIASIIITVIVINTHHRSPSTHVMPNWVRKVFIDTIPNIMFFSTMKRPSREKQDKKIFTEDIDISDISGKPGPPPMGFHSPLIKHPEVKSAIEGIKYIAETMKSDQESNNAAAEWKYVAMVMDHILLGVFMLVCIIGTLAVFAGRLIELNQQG
T1 sequence (Q07001 22-517): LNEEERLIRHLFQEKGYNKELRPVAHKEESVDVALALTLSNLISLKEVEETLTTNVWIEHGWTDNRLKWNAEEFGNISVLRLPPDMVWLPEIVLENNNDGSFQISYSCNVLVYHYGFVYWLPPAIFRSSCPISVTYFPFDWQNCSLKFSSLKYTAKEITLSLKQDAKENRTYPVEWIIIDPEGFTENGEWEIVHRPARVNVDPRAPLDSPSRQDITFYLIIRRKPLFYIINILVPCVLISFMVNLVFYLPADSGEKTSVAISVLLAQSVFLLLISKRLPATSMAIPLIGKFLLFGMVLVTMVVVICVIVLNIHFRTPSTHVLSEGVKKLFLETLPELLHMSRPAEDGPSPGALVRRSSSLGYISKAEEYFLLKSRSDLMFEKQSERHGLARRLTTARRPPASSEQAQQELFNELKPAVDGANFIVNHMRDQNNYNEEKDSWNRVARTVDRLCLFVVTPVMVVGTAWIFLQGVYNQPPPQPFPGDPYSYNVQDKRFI
T1 sequence (P07510 23-517): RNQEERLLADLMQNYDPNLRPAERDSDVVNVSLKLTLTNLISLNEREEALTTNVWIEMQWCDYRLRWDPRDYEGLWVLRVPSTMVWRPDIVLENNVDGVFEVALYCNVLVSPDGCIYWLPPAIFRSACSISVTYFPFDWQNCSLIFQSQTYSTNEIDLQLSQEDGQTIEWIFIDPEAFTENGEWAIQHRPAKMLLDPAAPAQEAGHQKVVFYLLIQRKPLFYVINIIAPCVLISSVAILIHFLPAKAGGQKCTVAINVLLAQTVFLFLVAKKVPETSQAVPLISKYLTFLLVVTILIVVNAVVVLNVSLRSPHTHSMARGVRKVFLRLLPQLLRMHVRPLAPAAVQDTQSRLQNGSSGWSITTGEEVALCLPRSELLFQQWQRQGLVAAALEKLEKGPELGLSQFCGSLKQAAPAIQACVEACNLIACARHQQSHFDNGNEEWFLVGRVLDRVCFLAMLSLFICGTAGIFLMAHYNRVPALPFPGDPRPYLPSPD
T1 sequence (P11230 24-501, further chain): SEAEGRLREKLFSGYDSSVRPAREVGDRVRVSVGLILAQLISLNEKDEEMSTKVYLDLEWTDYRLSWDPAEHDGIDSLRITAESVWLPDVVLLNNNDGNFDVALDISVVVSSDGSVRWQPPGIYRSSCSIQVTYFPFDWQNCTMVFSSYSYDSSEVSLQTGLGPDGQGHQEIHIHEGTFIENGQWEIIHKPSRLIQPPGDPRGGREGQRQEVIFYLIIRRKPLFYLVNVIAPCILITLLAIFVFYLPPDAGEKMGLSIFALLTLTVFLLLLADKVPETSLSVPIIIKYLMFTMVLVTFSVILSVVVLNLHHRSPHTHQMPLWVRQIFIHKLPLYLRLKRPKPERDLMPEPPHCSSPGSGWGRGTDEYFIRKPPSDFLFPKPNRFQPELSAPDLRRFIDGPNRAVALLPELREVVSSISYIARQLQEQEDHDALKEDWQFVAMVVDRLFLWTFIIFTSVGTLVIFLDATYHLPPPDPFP

CN1C2CCCC1CN(c1cccnc1)C2 [9-methyl-3-pyridin-3-yl-3,9-diaza-bicyclo[3.3.1]nonane]
Ki [1]: 320 nM | L-dopa-induced AIMs, follow-up dose ([2]; 3.0 mg/kg): did not further decrease L-dopa-induced AIMs | L-dopa-induced AIMs ([2]; 0.1, 0.3, 1.0 mg/kg sc 30 minutes prior to L-dopa (8 mg/kg)): significant, dose-related decrease in AIMs with the 0.3 and 1.0 mg/kg doses reaching statistical significance relative to saline controls | neuroprotective effect, number of TH positive neurons [3]: concentration-dependent neuroprotective effect
